Data taken from the supplement of paper PMC11208160.

experiment: recombinant UMI read abundance after kanamycin selection (control-corrected) (log10(CPM+1)); higher = more efficient recombination; extreme values may be limits of the assay; sequences stand for … in AGTGCAGAGAAAATCGGCCAGTTTTCTCTGCCTGCAGTCCGCATGCCGTGGGACCCCTTGGGTTCTAACCTGTTGCCTAGATTTATGCAGCGGACTGCCTTTCTCCCAAAGTGATAAACCGG…AGGTTGGTTTCACT; site = the 11-nt donor
Outline: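 The measure is log10(CPM+1) for recombinant UMIs. These were PCR-amplified across the donor–target junction and sequenced after Escherichia coli carrying a donor and donor-binding-loop pair library and a target plasmid with T7-inducible IS621 bridge recombinase was plated on IPTG (0.07 mM) plus kanamycin or unselected. CPM were averaged over two replicates and scaled by control-derived factors.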
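Further: IS621 bridge recombinase in Escherichia coli cells against a fixed T5 target plasmid.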

In order of falling “recombinant UMI read abundance (log10)” value:
1. CGACCCTCATGGACCGGTTTTCCCGGTAATCCGTATTTGCT (site CGACCCTCTAG)  3.63
2. CGACAATCATGGACCGGTTTTCCCGGTAATCCGTATTTGAC (site CGACAATCTGT)  2.86
3. CGACGGTCATGGACCGGTTTTCCCGGTAATCCGTATTTGTC (site CGACGGTCTGA)  2.77
4. CGACGTACATGGACCGGTTTTCCCGGTAATCCGTATTTGCT (site CGACGTACTAG)  2.45
5. CGAAAGGCATGGACCGGTTTTCCCGGTAATCCGTATTTGCT (site CGAAAGGCTAG)  2.39
6. CGACTTGCATGGACCGGTTTTCCCGGTAATCCGTATTTGAT (site CGACTTGCTAT)  2.39
7. CGAAAGACATGGACCGGTTTTCCCGGTAATCCGTATTTGGT (site CGAAAGACTAC)  2
8. CGAGCATCATGGACCGGTTTTCCCGGTAATCCGTATTTGCT (site CGAGCATCTAG)  1.79
9. CGAAGTCCATGGACCGGTTTTCCCGGTAATCCGTATTTGCG (site CGAAGTCCTCG)  1.21
10. CGAACGACATGGACCGGTTTTCCCGGTAATCCGTATTTGTT (site CGAACGACTAA)  1.08
11. CGAGAGGCATGGACCGGTTTTCCCGGTAATCCGTATTTGGG (site CGAGAGGCTCC)  0.928
12. CGACCATCATGGACCGGTTTTCCCGGTAATCCGTATTTGGT (site CGACCATCTAC)  0.825
13. CGACGTACATGGACCGGTTTTCCCGGTAATCCGTATTTGCT (site CGTCGTACTAG)  0.764
14. CGACGTACATGGACCGGTTTTCCCGGTAATCCGTATTTGCT (site CGGCGTACTAG)  0.688
15. CGAAAGACATGGACCGGTTTTCCCGGTAATCCGTATTTGGG (site CGAAAGACTCC)  0.621
16. CGAACCACATGGACCGGTTTTCCCGGTAATCCGTATTTGTG (site CGAACCACTCA)  0.523
17. CGAATAACATGGACCGGTTTTCCCGGTAATCCGTATTTGCC (site CGAATAACTGG)  0.484
18. CCTGATACATGGACCGGTTTTCCCGGTAATCCGTATTTGTA (site CCTGATACTTA)  0.326
19. CGAACTCCATGGACCGGTTTTCCCGGTAATCCGTATTTGGG (site CGAACTCCTCC)  0.143
20. CGAACGACATGGACCGGTTTTCCCGGTAATCCGTATTTGTT (site CGAGCGACTAA)  0.0306
21. CGAAGACCATGGACCGGTTTTCCCGGTAATCCGTATTTGGG (site CGAGGACCTCC)  0.0232
22. CCTTATACATGGACCGGTTTTCCCGGTAATCCGTATTTGAG (site CCTTATACTCT)  0.0212
23. CGACGTACATGGACCGGTTTTCCCGGTAATCCGTATTTGCT (site CGCCGTACTAG)  0.0167
24. CCTTCTCCATGGACCGGTTTTCCCGGTAATCCGTATTTGTG (site CCTTCTCCTCA)  0.0156
25. CGAAGACCATGGACCGGTTTTCCCGGTAATCCGTATTTGGG (site CGACGACCTCC)  0.0149
26. CCTATGGCATGGACCGGTTTTCCCGGTAATCCGTATTTGGT (site CCTATGGCTAC)  0.012
27. CCTCGTACATGGACCGGTTTTCCCGGTAATCCGTATTTGGT (site CCTCGTACTAC)  0.0115
28. CCTAATACATGGACCGGTTTTCCCGGTAATCCGTATTTGGT (site CCTAATACTCC)  0.0104
29. CCTTTAGCATGGACCGGTTTTCCCGGTAATCCGTATTTGTG (site CCCTTAGCTCA)  0.00968
30. CCTTTAGCATGGACCGGTTTTCCCGGTAATCCGTATTTGTG (site CCGTTAGCTCA)  0.00885
31. CGAACGACATGGACCGGTTTTCCCGGTAATCCGTATTTGTT (site CGATCGACTAA)  0.00769
32. CCTGTACCATGGACCGGTTTTCCCGGTAATCCGTATTTGCG (site CCTGTACCTCG)  0.0076
33. CCTTTAGCATGGACCGGTTTTCCCGGTAATCCGTATTTGTG (site CCATTAGCTCA)  0.00718
34. CCTGAACCATGGACCGGTTTTCCCGGTAATCCGTATTTGGT (site CCTGAACCTAC)  0.00702
35. CGAGGACCATGGACCGGTTTTCCCGGTAATCCGTATTTGCG (site CGAGGACCTCC)  0.00697
36. CCTACGGCATGGACCGGTTTTCCCGGTAATCCGTATTTGCG (site CCTACGGCTCG)  0.00682
37. CCTTTAGCATGGACCGGTTTTCCCGGTAATCCGTATTTGTG (site CCTTTAGCTCA)  0.0063
38. CGAAGACCATGGACCGGTTTTCCCGGTAATCCGTATTTGGG (site CGATGACCTCC)  0.006
39. CGACCAACATGGACCGGTTTTCCCGGTAATCCGTATTTGAT (site GAGGGGCCTTC)  0.006
40. CGAACGACATGGACCGGTTTTCCCGGTAATCCGTATTTGTT (site CGACCGACTAA)  0.00483
41. CCTTCTTCATGGACCGGTTTTCCCGGTAATCCGTATTTGGG (site CCTTCTTCTCC)  0.00401
42. CGAGGACCATGGACCGGTTTTCCCGGTAATCCGTATTTGCG (site CGAGGACCTCA)  0.00306
43. CCTTTGTCATGGACCGGTTTTCCCGGTAATCCGTATTTGGA (site CCTTTGTCTTC)  0.00278
44. CCTAATACATGGACCGGTTTTCCCGGTAATCCGTATTTGGT (site CCTAATACTAC)  0
45. CCTAATACATGGACCGGTTTTCCCGGTAATCCGTATTTGGT (site CCTAATACTGC)  0
46. CCTAATACATGGACCGGTTTTCCCGGTAATCCGTATTTGGT (site CCTAATACTTC)  0
47. CCTAATACATGGACCGGTTTTCCCGGTAATCCGTATTTGTC (site CCTAATACTGA)  0
48. CCTAATACATGGACCGGTTTTCCCGGTAATCCGTATTTGTC (site CCTAATACTGC)  0
49. CCTAATACATGGACCGGTTTTCCCGGTAATCCGTATTTGTC (site CCTAATACTGG)  0
50. CCTAATACATGGACCGGTTTTCCCGGTAATCCGTATTTGTC (site CCTAATACTGT)  0
51. CCTAATGCATGGACCGGTTTTCCCGGTAATCCGTATTTGGC (site CCTAATACTGC)  0
52. CCTAATGCATGGACCGGTTTTCCCGGTAATCCGTATTTGGC (site CCTAATCCTGC)  0
53. CCTAATGCATGGACCGGTTTTCCCGGTAATCCGTATTTGGC (site CCTAATGCTGC)  0
54. CCTAATGCATGGACCGGTTTTCCCGGTAATCCGTATTTGGC (site CCTAATTCTGC)  0
55. CCTATTTCATGGACCGGTTTTCCCGGTAATCCGTATTTGAA (site CCTATTTCTTT)  0
56. CCTCAGCCATGGACCGGTTTTCCCGGTAATCCGTATTTGGC (site CCTCAGCCTGC)  0
57. CCTCCTTCATGGACCGGTTTTCCCGGTAATCCGTATTTGCT (site CCTCCTTCTAG)  0
58. CCTGCCCCATGGACCGGTTTTCCCGGTAATCCGTATTTGGC (site CCTGCCCCTGC)  0
59. CCTGGCTCATGGACCGGTTTTCCCGGTAATCCGTATTTGCA (site CCTGGCTCTTG)  0
60. CCTGTAACATGGACCGGTTTTCCCGGTAATCCGTATTTGCA (site CCTGTAACTTG)  0
61. CCTTAGCCATGGACCGGTTTTCCCGGTAATCCGTATTTGAA (site CCTTAGCCTTT)  0
62. CCTTCTTCATGGACCGGTTTTCCCGGTAATCCGTATTTGTC (site CCTTCTTCTGA)  0
63. CCTTTGCCATGGACCGGTTTTCCCGGTAATCCGTATTTGGC (site CCTTTGCCTGC)  0
64. CGAAAAGCATGGACCGGTTTTCCCGGTAATCCGTATTTGCA (site CGAAAAGCTTG)  0
65. CGAAAGGCATGGACCGGTTTTCCCGGTAATCCGTATTTGCT (site AGAAAGGCTAG)  0
66. CGAAAGGCATGGACCGGTTTTCCCGGTAATCCGTATTTGCT (site GGAAAGGCTAG)  0
67. CGAAAGGCATGGACCGGTTTTCCCGGTAATCCGTATTTGCT (site TGAAAGGCTAG)  0
68. CGAAGACCATGGACCGGTTTTCCCGGTAATCCGTATTTGGG (site CGAAGACCTCC)  0
69. CGACCATCATGGACCGGTTTTCCCGGTAATCCGTATTTGGT (site CGATCATCTAG)  0
70. CGACCCTCATGGACCGGTTTTCCCGGTAATCCGTATTTGCT (site CGATCATCTAG)  0
71. CGACGACCATGGACCGGTTTTCCCGGTAATCCGTATTTGAC (site CGACGACCTGT)  0
72. CGAGCATCATGGACCGGTTTTCCCGGTAATCCGTATTTGCT (site CGAACATCTAG)  0
73. CGAGCATCATGGACCGGTTTTCCCGGTAATCCGTATTTGCT (site CGACCATCTAG)  0
74. CGAGCATCATGGACCGGTTTTCCCGGTAATCCGTATTTGCT (site CGATCATCTAG)  0
75. CGAGGACCATGGACCGGTTTTCCCGGTAATCCGTATTTGCG (site CGAGGACCTCG)  0
